In one assay the target is T1, human CB2 receptor (Homo sapiens, UniProt P34972).
T1 construct: host or cells: CHO-K1 (stably transfected cell line, membranes prepared in house)
Description: CB2 radioligand competitive binding assay ([3H]CP 55,940 displacement). As to conditions: for Selectivity CB2: fold difference between CB1 and CB2 binding, printed in the column of the receptor with higher affinity, 1.00 in both = about the same affinity. As for the experimental part: Compounds of the present disclosure were tested for CB1 receptor binding affinity and for CB2 receptor binding affinity. As used herein, “binding affinity” is represented by the IC50 value, which was experimentally determined as described herein. The lower the IC50 value the higher the binding affinity. A compound of the present disclosure may be said to have “binding selectivity” if it has a higher binding affinity for one receptor compared to the other.
The membranes were prepared from CHO-K1 (Chinese hamster ovary) cells stably transfected with the human CB2 receptor (Cat. #ES-111-C; Perkin Elmer, Boston, Mass.). The cells were grown adherently and maintained in Ham's F12 medium containing 10% fetal bovine serum (FBS), penicillin, streptomycin and geneticin (G418) at 37° C. in a humid atmosphere of 5% CO2 following the manufacturer's instructions.
For membrane preparation the cells were washed with PBS and scraped off the plates in cold homogenization buffer (25 mM HEPES (pH 7.4), 2 mM EDTA) containing protease inhibitor cocktail (Sigma Cat. #P8340). The cell suspension was homogenized with a Pro-PK-01200D Polytron Homogenizer (Pro Scientific) and then centrifuged for 30 min at 120,000×g. The supernatant was discarded and the pellet was re-suspended in the homogenization buffer and stored at −80° C. until the time of use.
In this experiment, 3H radiolabeled CP 55,940, i.e. [3H]CP 55,940 (Perkin Elmer, Boston, Mass.), was used as a radioligand for the CB2 receptor to determine the binding affinity of compounds for the CB2 receptor (Scheme 3; above).
The competition binding experiments (single dose and dose-response) were performed by incubating 0.6 nM of [3H]CP55,940 (specific activity 101 Ci/mmol, Perkin Elmer) and different concentrations of compounds disclosed herein with membranes prepared as above from CHO-K1 cells expressing human CB2 receptor (1 μg of protein/well), 50 mM Tris-HCl (pH 7.4), 5 mM MgCl2, 1 mM CaCl2, and 2 mg/mL BSA.
For the single dose experiments, the compound stocks (usually 10 mM in DMSO) were diluted to working stocks in the binding buffer to give the final compound concentrations of 10 μM and 1 μM. For the dose-response experiments the test compounds were sequentially diluted to provide the desired concentration range for the IC50 determination. In each case the compounds were pre-incubated with the membrane for 20 min, before adding the radioligand.
After incubation with the radioligand for 60 min at 37° C., the incubation was terminated by rapid filtration of assay mixture through MultiScreen®HTS^+ 96-well filter plates (Millipore, Cat. #MSFCNXB), pre-soaked for 60 min with 50 mM Tris-HCl (pH 7.4) containing 0.33% polyethylenimine (PEI). The nonspecific binding (NSB) was determined in the presence of 10 μM unlabelled CP55,940. After drying the filter plate at 50° C. for at least 60 min, the filter-bound radioactivity was determined by scintillation spectrometry using the 1450 MicroBeta Plate Counter (Perkin Elmer, Boston, Mass.). From the dose-response experiments, the IC50 values were determined (see Table 1, CB2 IC50).
Where the test compound had about the same affinity for both receptors, this is represented by a value of 1.00 in the column for both receptors.

The target of a further assay is T2, human CB1 receptor (Homo sapiens, UniProt P21554).
T2 construct: host or cells: CHO-K1 (stably transfected cell line, membranes prepared in house)
In words: CB1 radioligand competitive binding assay ([3H]CP 55,940 displacement). The conditions noted are these: for Selectivity CB1: fold difference between CB1 and CB2 binding, printed in the column of the receptor with higher affinity, 1.00 in both = about the same affinity.

The mark [1] stands for this setting: 0.6 nM [3H]CP 55,940, membranes from CHO-K1 cells expressing human CB2 receptor, dose-response, read-out: CB2 IC50.
[2] abbreviates: 0.8 nM [3H]CP 55,940, membranes from CHO-K1 cells expressing human CB1 receptor, dose-response, read-out: CB1 IC50.

Read-outs that look alike come from different tables or passages of the source.

T2 sequence (P21554 whole entry): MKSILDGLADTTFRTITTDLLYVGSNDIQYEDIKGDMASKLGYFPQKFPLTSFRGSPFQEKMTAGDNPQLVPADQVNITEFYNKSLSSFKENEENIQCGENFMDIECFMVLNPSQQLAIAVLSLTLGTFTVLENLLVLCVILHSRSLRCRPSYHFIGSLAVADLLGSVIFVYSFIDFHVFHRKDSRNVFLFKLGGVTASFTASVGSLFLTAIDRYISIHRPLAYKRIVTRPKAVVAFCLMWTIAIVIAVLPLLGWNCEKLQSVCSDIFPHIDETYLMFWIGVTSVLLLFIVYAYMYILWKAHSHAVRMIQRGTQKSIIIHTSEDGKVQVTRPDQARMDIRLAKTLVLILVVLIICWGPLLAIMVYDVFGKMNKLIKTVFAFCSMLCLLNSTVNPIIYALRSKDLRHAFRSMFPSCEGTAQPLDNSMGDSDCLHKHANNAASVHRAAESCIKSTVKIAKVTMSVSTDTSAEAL
T1 sequence (P34972 whole entry): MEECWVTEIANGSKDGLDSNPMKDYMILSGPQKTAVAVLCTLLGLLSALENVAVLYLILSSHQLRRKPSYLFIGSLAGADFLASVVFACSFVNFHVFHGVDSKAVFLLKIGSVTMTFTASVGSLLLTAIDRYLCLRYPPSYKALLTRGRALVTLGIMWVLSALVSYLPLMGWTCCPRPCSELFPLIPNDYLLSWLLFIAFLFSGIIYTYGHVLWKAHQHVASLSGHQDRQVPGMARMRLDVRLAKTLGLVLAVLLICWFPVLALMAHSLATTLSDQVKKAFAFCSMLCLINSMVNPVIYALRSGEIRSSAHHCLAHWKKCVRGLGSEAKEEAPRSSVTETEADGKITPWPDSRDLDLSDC

As usually defined, the IC50 is the midpoint of a concentration-inhibition curve. On to `CCCCCc1cc(OCOC(=O)OCC)c(CC=C(C)CCC=C(C)C)c(OCOC(=O)OCC)c1` [4′, ((2-(3,7-dimethylocta-2,6-dien-1-yl)-5-pentyl-1,3-phenylene)bis(oxy))bis(methylene) diethyl bis(carbonate)], for which the IC50 at human CB2 receptor (setting [1]) was 500 to 990 nM; at human CB1 receptor (setting [2]), more than 5000 nM. Besides, the “Selectivity CB2” value on human CB2 receptor was determined as 24.69 fold.
As for `CCCCCc1cc(OCOC(=O)C(C)(C)C)c(CC=C(C)CCC=C(C)C)c(OCOC(=O)C(C)(C)C)c1` [7′, ((2-(3,7-dimethylocta-2,6-dien-1-yl)-5-pentyl-1,3-phenylene)bis(oxy))bis(methylene) bis(2,2-dimethylpropanoate)], the IC50 at human CB2 receptor (setting [1]) and at human CB1 receptor (setting [2]) was more than 5000 nM throughout. At human CB2 receptor, the “Selectivity CB2” value was 1.00 fold. Besides, the “Selectivity CB1” value on human CB1 receptor came to 1.00 fold.
As to `CCCCCc1cc(OCOC2CCCCC2)c(CC=C(C)CCC=C(C)C)c(OCOC2CCCCC2)c1` [18′, ((((2-(3,7-dimethylocta-2,6-dien-1-yl)-5-pentyl-1,3-phenylene)bis(oxy))bis(methylene))bis(oxy))dicyclohexane], the IC50 at human CB2 receptor (setting [1]) and at human CB1 receptor (setting [2]) was more than 5000 nM in each case. Besides, the “Selectivity CB2” value on human CB2 receptor is on record as 1.00 fold. Moreover, at human CB1 receptor, the “Selectivity CB1” value worked out at 1.00 fold.
With `CCCCCCC(C)(C)c1cc(OCOC(=O)C(C)(C)C)c(CC=C(C)CCC=C(C)C)c(OCOC(=O)C(C)(C)C)c1` [22′, ((2-(3,7-dimethylocta-2,6-dien-1-yl)-5-(2-methyloctan-2-yl)-1,3-phenylene)bis(oxy))bis(methylene) bis(2,2-dimethylpropanoate)], the IC50 was 1000 to 4990 nM on human CB2 receptor (setting [1]) and more than 5000 nM at human CB1 receptor (setting [2]). The “Selectivity CB2” value at human CB2 receptor was 7.14 fold.
In the case of `CCCCCc1cc(O)c(CC=C(C)CCC=C(C)C)c(OCOC(=O)OCC)c1` [Compound 4, (2-(3,7-dimethylocta-2,6-dien-1-yl)-3-hydroxy-5-pentylphenoxy)methyl ethyl carbonate], the IC50 is less than 500 nM on human CB2 receptor (setting [1]) and 1000 to 4990 nM on human CB1 receptor (setting [2]). At human CB2 receptor, the “Selectivity CB2” value was 7.82 fold.
For `CCCCCc1cc(O)c(CC=C(C)CCC=C(C)C)c(OCOC(=O)C(C)(C)C)c1` [Compound 7, (2-(3,7-dimethylocta-2,6-dien-1-yl)-3-hydroxy-5-pentylphenoxy)methyl pivalate], in that order: less than 500 nM, 500 to 990 nM and 16.02 fold.
With `CCCCCc1cc(O)c(C/C=C(\C)CCC=C(C)C)c(OCOCC)c1` [Compound 16, 2-(3,7-dimethylocta-2,6-dien-1-yl)-3-(ethoxymethoxy)-5-pentylphenol], the IC50 at human CB2 receptor (setting [1]) is 1000 to 4990 nM; at human CB1 receptor (setting [2]), more than 5000 nM. The “Selectivity CB2” value at human CB2 receptor is recorded as 2.83 fold.
`CCCCCc1cc(O)c(C/C=C(\C)CCC=C(C)C)c(OCOCCOC)c1` [Compound 17, 2-(3,7-dimethylocta-2,6-dien-1-yl)-3-((2-methoxyethoxy)methoxy)-5-pentylphenol]: at human CB2 receptor, the IC50 fell in the range of 1000 to 4990 nM and the “Selectivity CB2” value worked out at 4.00 fold. For the same molecule, on human CB1 receptor, the IC50 was 1000 to 4990 nM.
With `CCCCCc1cc(O)c(CC=C(C)CCC=C(C)C)c(OCOC2CCCCC2)c1` [Compound 18, 3-((cyclohexyloxy)methoxy)-2-(3,7-dimethylocta-2,6-dien-1-yl)-5-pentylphenol], the IC50 is less than 500 nM at human CB2 receptor (setting [1]) and more than 5000 nM on human CB1 receptor (setting [2]). Further, at human CB2 receptor, the “Selectivity CB2” value turned out to be 28.00 fold.
For `CCCc1cc(O)c(C/C=C(\C)CCC=C(C)C)c(OCOC(=O)C(C)(C)C)c1` [Compound 19, (2-(3,7-dimethylocta-2,6-dien-1-yl)-3-hydroxy-5-propylphenoxy)methyl pivalate], in that order: less than 500 nM, 500 to 990 nM and 3.89 fold.
For `CCCc1cc(O)c(C/C=C(\C)CCC=C(C)C)c(OCOC(=O)OCC)c1` [Compound 20, (2-(3,7-dimethylocta-2,6-dien-1-yl)-3-hydroxy-5-propylphenoxy)methyl ethyl carbonate], in that order: 1000 to 4990 nM, 1000 to 4990 nM and 1.80 fold.
As to `CCCCCCC(C)(C)c1cc(O)c(C/C=C(\C)CCC=C(C)C)c(OCOC(=O)OCC)c1` [Compound 21, (2-(3,7-dimethylocta-2,6-dien-1-yl)-3-hydroxy-5-(2-methyloctan-2-yl)phenoxy)methyl ethyl carbonate], the IC50 on human CB2 receptor was less than 500 nM; on human CB1 receptor, 500 to 990 nM. The “Selectivity CB2” value at human CB2 receptor worked out at 6.92 fold.
Take `CCCCCCC(C)(C)c1cc(O)c(CC=C(C)CCC=C(C)C)c(OCOC(=O)C(C)(C)C)c1` [Compound 22, (2-(3,7-dimethylocta-2,6-dien-1-yl)-3-hydroxy-5-(2-methyloctan-2-yl)phenoxy)methyl pivalate]: the IC50 was less than 500 nM on human CB2 receptor (setting [1]) and 1000 to 4990 nM at human CB1 receptor (setting [2]). In addition, the “Selectivity CB2” value on human CB2 receptor was 7.25 fold.
For `CCCCCc1cc(O)c(C/C=C(\C)CCC=C(C)C)c(OCN(C(=O)OC)c2ccccc2)c1` [Compound 23, methyl ((2-(3,7-dimethylocta-2,6-dien-1-yl)-3-hydroxy-5-pentylphenoxy)methyl)(phenyl)carbamate], in that order: less than 500 nM, less than 500 nM and 1.37 fold.
Consider “dimethyl (((5-butyl-2-(3,7-dimethylocta-2,6-dien-1-yl)-1,3-phenylene)bis(oxy))bis(methylene)) bis(phenylcarbamate) [23′]”, for which the IC50 on human CB2 receptor (setting [1]) and at human CB1 receptor (setting [2]) was more than 5000 nM throughout. The “Selectivity CB2” value at human CB2 receptor amounted to 1.88 fold.

The values are drawn from US20230059582A1, “CANNABINOID DERIVATIVES” (CANOPY GROWTH CORPORATION, priority 2019, published 2023).
